In ChEMBL document CHEMBL1152560, “Substituted 2-arylbenzothiazoles as kinase inhibitors: hit-to-lead optimization” (Bioorg Med Chem, 2009):

Experiments:
[1] = biological target: T1, Inhibitor of nuclear factor kappa-B kinase subunit alpha (Homo sapiens) (UniProt O15111); test: Residual activity of IKKalpha at 0.1 uM by microplate scintillation counting
T1 sequence (whole entry): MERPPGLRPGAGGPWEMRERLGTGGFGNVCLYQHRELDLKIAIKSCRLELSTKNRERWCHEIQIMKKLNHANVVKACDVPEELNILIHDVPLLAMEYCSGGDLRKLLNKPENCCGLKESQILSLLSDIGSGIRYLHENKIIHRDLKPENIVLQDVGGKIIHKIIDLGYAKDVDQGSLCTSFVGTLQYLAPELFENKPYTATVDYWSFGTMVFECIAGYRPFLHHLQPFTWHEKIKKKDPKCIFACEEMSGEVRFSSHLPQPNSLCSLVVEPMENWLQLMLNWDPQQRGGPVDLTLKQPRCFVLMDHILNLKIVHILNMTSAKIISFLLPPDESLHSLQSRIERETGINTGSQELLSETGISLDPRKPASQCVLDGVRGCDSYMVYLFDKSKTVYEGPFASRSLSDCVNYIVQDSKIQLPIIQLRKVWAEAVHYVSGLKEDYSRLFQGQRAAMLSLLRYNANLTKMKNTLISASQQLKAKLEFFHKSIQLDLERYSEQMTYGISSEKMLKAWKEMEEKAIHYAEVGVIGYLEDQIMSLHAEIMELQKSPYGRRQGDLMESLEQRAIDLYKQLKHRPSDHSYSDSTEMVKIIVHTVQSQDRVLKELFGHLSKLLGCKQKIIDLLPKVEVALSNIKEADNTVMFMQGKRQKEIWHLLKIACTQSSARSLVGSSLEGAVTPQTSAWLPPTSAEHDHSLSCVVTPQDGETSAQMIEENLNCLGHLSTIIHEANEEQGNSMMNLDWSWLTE

[2] = biological target: Cyclin-dependent kinase 7/ cyclin H (Homo sapiens) (UniProt P51946+P50613); test: Residual activity of CDK7/CyclinH/MAT1 at 10 uM by microplate scintillation counting; assay type: protein-complex assay
[3] = biological target: RAC-alpha serine/threonine-protein kinase (Homo sapiens) (UniProt P31749); test: Residual activity of AKT1 at 0.1 uM by microplate scintillation counting
RAC-alpha serine/threonine-protein kinase (Homo sapiens), sequence (P31749 whole entry): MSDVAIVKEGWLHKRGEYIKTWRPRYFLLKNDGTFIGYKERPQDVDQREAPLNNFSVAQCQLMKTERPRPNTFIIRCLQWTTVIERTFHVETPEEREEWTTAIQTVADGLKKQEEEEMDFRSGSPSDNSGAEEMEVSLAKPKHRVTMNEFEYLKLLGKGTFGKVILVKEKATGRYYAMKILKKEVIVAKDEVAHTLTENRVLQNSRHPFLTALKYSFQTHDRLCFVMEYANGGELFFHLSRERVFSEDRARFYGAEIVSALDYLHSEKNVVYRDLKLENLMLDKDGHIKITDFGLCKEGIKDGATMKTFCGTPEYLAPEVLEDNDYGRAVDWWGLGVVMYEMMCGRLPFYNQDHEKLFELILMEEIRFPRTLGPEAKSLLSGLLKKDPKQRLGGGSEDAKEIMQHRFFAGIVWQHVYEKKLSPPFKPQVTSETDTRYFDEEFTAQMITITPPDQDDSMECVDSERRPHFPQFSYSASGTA

[4] = Residual activity of PKA at 10 uM by microplate scintillation counting
[5] = biological target: Casein kinase I isoform delta (Homo sapiens) (UniProt P48730); test: Residual activity of CK1delta at 10 uM by microplate scintillation counting
Casein kinase I isoform delta (Homo sapiens), sequence (P48730 whole entry, looked up, canonical isoform): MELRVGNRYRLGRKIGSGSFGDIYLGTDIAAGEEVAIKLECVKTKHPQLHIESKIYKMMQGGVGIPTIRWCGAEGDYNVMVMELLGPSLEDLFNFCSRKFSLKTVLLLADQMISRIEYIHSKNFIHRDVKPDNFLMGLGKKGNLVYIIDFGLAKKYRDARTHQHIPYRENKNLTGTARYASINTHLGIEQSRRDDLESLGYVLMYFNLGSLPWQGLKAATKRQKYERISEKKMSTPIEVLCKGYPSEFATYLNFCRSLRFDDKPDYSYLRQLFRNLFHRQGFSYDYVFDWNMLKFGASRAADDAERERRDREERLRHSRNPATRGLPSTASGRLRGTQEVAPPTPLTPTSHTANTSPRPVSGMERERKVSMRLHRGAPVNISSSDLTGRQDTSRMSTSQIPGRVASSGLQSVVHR

[6] = biological target: Proto-oncogene tyrosine-protein kinase Src (Homo sapiens) (UniProt P12931); test: Residual activity of SRC at 0.1 uM by microplate scintillation counting
Proto-oncogene tyrosine-protein kinase Src (Homo sapiens), sequence (P12931 2-536 limits assumed): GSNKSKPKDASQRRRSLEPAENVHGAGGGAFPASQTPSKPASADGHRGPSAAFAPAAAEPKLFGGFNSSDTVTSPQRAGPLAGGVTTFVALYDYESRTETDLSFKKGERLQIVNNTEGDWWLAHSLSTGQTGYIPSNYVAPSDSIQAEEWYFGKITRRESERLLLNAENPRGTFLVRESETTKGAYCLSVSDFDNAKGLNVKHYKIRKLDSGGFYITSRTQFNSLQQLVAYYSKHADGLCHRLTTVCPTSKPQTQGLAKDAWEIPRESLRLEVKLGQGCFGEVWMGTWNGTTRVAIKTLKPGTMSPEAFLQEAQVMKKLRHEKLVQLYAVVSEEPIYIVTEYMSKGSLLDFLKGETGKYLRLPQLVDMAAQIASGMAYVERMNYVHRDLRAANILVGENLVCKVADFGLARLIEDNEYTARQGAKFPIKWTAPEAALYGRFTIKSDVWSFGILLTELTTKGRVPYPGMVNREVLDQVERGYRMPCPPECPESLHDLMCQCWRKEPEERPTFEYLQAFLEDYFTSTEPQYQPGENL

[7] = Residual activity of PKA at 1 uM by microplate scintillation counting
[8] = biological target: Serine/threonine-protein kinase B-raf (Homo sapiens) (UniProt P15056); test: Residual activity of Wild type B-RAF at 0.1 uM by microplate scintillation counting
Serine/threonine-protein kinase B-raf (Homo sapiens), sequence (P15056 whole entry): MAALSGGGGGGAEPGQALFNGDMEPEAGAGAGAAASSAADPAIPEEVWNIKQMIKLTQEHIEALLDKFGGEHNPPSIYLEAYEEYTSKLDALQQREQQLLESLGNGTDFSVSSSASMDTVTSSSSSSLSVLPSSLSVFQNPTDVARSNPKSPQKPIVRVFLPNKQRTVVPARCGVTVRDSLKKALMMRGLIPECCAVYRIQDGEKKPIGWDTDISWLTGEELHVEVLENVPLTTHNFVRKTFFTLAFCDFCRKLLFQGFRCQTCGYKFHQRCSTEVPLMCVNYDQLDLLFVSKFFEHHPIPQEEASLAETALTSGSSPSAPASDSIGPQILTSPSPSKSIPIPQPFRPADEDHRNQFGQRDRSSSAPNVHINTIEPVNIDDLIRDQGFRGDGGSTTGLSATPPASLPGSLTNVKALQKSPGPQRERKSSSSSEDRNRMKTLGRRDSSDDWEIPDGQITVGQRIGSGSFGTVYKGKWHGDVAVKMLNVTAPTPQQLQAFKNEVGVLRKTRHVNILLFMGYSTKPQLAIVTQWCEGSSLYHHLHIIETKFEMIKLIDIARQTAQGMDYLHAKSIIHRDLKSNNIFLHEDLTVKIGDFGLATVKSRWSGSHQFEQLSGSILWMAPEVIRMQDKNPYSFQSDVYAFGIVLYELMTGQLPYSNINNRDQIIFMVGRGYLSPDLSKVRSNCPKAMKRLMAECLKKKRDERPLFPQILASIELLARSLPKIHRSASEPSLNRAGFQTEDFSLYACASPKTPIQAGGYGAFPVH

[9] = biological target: Tyrosine-protein kinase Fgr (Homo sapiens) (UniProt P09769); test: Residual activity of FGR at 0.1 uM by microplate scintillation counting
Tyrosine-protein kinase Fgr (Homo sapiens), sequence (P09769 2-529 limits assumed): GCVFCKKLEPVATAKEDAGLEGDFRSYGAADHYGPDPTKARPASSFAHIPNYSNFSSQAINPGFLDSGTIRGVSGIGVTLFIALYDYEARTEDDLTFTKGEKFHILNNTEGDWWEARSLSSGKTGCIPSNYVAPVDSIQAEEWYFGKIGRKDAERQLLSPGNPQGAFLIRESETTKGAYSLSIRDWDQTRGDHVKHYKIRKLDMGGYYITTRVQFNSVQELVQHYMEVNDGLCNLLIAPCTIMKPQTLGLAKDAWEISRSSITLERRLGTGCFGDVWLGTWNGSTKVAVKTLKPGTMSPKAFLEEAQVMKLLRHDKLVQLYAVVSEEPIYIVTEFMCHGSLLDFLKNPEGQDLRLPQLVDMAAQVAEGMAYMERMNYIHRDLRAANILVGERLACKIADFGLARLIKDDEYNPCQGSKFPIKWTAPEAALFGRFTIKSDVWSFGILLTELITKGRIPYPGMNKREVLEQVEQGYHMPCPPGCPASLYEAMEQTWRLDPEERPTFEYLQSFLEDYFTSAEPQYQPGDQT

[10] = biological target: T2, Serine/threonine-protein kinase Nek1 (Homo sapiens) (UniProt Q96PY6); test: Residual activity of NEK1 at 0.1 uM by microplate scintillation counting
T2 sequence (whole entry): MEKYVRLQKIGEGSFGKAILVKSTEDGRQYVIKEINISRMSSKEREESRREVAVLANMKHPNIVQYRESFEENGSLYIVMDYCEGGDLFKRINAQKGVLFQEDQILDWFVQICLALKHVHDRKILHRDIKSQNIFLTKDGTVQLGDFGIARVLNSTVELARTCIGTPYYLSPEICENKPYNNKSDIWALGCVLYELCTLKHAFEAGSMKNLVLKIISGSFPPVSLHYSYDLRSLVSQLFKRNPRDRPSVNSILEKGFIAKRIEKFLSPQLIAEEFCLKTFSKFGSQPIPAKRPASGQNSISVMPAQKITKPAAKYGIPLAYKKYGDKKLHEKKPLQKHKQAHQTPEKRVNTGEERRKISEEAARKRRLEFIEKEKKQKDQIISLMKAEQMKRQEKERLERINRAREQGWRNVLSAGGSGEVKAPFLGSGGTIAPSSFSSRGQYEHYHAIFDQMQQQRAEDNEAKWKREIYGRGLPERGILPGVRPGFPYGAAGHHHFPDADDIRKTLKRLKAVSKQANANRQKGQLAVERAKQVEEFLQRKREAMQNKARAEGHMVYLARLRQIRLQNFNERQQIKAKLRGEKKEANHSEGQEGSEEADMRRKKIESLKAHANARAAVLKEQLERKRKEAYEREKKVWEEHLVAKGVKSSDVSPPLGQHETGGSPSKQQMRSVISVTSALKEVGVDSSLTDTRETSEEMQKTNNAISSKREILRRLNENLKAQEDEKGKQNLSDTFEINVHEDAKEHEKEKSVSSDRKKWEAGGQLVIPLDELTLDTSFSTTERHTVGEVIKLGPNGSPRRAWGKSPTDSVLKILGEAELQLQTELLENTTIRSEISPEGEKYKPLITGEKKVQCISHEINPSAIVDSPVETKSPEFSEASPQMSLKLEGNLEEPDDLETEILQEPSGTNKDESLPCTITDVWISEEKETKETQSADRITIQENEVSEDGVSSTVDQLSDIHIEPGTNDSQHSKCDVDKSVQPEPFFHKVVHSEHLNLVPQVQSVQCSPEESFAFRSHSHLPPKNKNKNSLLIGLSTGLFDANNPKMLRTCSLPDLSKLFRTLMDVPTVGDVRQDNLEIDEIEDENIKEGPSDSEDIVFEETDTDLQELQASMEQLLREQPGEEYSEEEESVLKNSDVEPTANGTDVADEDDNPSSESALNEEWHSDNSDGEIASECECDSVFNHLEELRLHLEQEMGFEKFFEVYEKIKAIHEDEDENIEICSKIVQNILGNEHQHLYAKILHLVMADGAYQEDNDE

[11] = biological target: NT-3 growth factor receptor (Homo sapiens) (UniProt Q16288); test: Residual activity of TRK-C at 0.1 uM by microplate scintillation counting
NT-3 growth factor receptor (Homo sapiens), sequence (Q16288 32-839 limits assumed): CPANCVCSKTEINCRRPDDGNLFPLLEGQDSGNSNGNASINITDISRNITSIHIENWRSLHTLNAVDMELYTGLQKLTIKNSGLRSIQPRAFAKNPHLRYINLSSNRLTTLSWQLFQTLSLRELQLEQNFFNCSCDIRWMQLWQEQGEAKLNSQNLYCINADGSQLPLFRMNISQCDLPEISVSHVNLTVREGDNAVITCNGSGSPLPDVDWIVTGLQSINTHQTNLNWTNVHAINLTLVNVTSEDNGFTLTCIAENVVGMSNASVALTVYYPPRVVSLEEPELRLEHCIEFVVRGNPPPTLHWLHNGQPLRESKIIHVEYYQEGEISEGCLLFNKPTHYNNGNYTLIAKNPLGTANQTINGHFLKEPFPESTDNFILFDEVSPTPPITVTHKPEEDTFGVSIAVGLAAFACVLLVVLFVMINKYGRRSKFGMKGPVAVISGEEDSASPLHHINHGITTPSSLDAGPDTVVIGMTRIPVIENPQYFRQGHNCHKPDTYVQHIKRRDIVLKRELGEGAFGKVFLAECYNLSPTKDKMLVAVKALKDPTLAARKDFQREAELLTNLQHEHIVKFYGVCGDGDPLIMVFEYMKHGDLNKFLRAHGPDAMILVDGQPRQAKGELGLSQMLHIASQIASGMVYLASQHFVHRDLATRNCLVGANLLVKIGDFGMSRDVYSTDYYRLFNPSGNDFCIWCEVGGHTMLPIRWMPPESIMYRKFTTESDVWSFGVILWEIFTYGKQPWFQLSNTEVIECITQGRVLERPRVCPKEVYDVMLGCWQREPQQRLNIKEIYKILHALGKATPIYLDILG

residual activity [1] [%] | residual activity [2] [%] | residual activity [3] [%] | residual activity [4] [%] | residual activity [5] [%] | residual activity [6] [%] | residual activity [7] [%] | residual activity [8] [%] | residual activity [9] [%] | residual activity [10] [%] | residual activity [11] [%] | SMILES
89 | 116 | 91 | 78 | 133 | 100 | 96 | 98 | 96 | 98 | 109 | COc1cc2c(Oc3ccc(-c4nc5ccccc5s4)cc3)ncnc2cc1OCCCN1CCCC1
81 | 138 | 100 | 57 | 149 | 100 | 103 | 95 | 103 | 93 | 110 | COc1cc2c(Oc3ccc(-c4nc5ccccc5s4)cc3F)ncnc2cc1OCCCN1CCN(C)CC1
87 | 130 | 102 | 53 | 156 | 100 | 106 | 90 | 103 | 87 | 97 | COc1cc2c(Oc3ccc(-c4nc5ccccc5s4)cc3)ncnc2cc1OCCCN1CCN(C)CC1
